Results: US5258406A, “Sulfonimidamides” (priority 1992, dated 1993)
Where two headings read alike, the source gives them in different places.

Tested on: 6C3HED lymphosarcoma
Test: animal or person
Assay type: in vivo
Conditions: for inhibition in vivo at 150 mg/kg / inhibition in vivo at 300 mg/kg / inhibition in vivo at 25 mg/kg / inhibition in vivo at 50 mg/kg: Mus musculus, 6C3HED; for inhibition in vivo at 300 mg/kg: read-out: % inhibition of tumor growth, oral, 300 mg/kg, BIDX 8; for inhibition in vivo at 25 mg/kg: read-out: % inhibition of tumor growth, oral, 25 mg/kg, DX 8; for inhibition in vivo at 50 mg/kg: read-out: % inhibition of tumor growth, oral, 50 mg/kg, DX 8
Experimental: The compounds were tested in C3H mice bearing a 6C3HED lymphosarcoma, also known as the Gardner lymphosarcoma (GLS), and in a variety of human tumor xenografts in CD1 nu/nu mice, including CX-1, LX-1, HXGC3, and VRC5. The 6C3HED lymphosarcoma was obtained from the Division of Cancer Treatment, National […] Institute, Tumor Bank, maintained at E. G. and G. Mason Research (Worcester, Mass.). The CX-1 human colon carcinoma and the LX-1 human lung carcinoma xenografts were obtained from the National Cancer Institute. The HXGC3 and VRC5 human colon xenografts were obtained from Dr. P. J. Houghton, St. Jude Children's Hospital in Memphis (see Br. J. Cancer, 37, 213 (1978)). First passage tumor was stored in liquid nitrogen using standard techniques. The transplanted tumor was reestablished from the Tumor Bank every six months or as needed. The tumor was maintained by serial passage twice weekly in C3H mice.
In the procedure the tumor was removed from passage animals and minced into 1- to 3-mm square fragments using sterile techniques. Tumor pieces were checked for sterility using both Antibiotic Medium 1 and Brain Heart Infusion (Difco, Detroit, Mich.). Recipient mice were shaved and tumor pieces were implanted subcutaneously in the auxiliary region by trocar. Drug therapy on the appropriate schedule was initiated on the day after tumor implant for 6C3HED and after a seven (7) day delay for xenografts (or other delay as noted in Table 2). The compound being tested was mixed with 2.5% Emulphor EL620 from GAF Corporation (1:40 dilution in saline). Food and water were provided ad libitium. The drug was administered orally in 0.5 ml of 2.5% Emulphor (unless otherwise indicated). The tumor was measured the day after treatment ended with two dimensional measurements (width and length) of the tumor taken using automated digital calipers interfaced to a microcomputer. Approximate weight for the tumor was calculated using the following formula [Worzalla, J. F., et al., Invest. New Drugs, 8, 241 (1990], (tumor weight in mg)=(width in mm)^2 ×(length in mm)/2.
At least one control group of an equal number of mice was treated with the same volume of 2.5% Emulphor only. The percent inhibition was determined by subtracting the ratio of the mean tumor size of the test group relative to the control group from one and multiplying the result times 100.
The results of several experiments in mice bearing a 6C3HED lymphosarcoma (or other tumor where indicated) when the indicated compounds were administered are provided in Table 2. In Table 2, column 1 gives the Example number of the compound used, column 2 lists the dose level in mg/kg, column 3 provides the percent inhibition of tumor growth, column 4 gives the number of mice which died relative to the total number of animals in the group, column 5 gives the method of administration of the compound, and column 6 gives the dosage schedule. The protocol used with other tumors was the same as with the 6C3HED lymphosarcoma.

[1] = po, read-out: % inhibition of tumor growth, oral, 150 mg/kg, BIDX 8

Compound	Tox/Tot (mice which died / total) (IP, 150 mg/kg, DX 8)	% inhibition of tumor growth (IP, 300 mg/kg, DX 8)	Tox/Tot (mice which died / total) (IP, 300 mg/kg, DX 8)	inhibition in vivo at 150 mg/kg (ip, read-out: % inhibition of tumor growth, IP, 150 mg/kg, DX 8) [%]	inhibition in vivo at 150 mg/kg [1] [%]	inhibition in vivo at 300 mg/kg (po) [%]	Tox/Tot (mice which died / total) (oral, 150 mg/kg, BIDX 8)	Tox/Tot (mice which died / total) (oral, 300 mg/kg, BIDX 8)	inhibition in vivo at 25 mg/kg (po) [%]	inhibition in vivo at 50 mg/kg (po) [%]	Tox/Tot (mice which died / total) (oral, 25 mg/kg, DX 8)	Tox/Tot (mice which died / total) (oral, 50 mg/kg, DX 8)
Cc1cc(S(N)(=O)=NC(=O)Nc2ccc(Cl)cc2)cc(C)c1Cl (centres unmarked) [Example 61]	2/10	TOX	10/10	72	0	0	0/10	0/10	–	–	–	–
CNS(=O)(=NC(=O)Nc1ccc(Cl)cc1)c1ccc(C)c(C)c1 (centres unmarked) [Example 62]	–	–	–	–	–	–	–	–	98	99	0/10	2/10
CC(=O)N(C)S(=O)(=NC(=O)Nc1ccc(Cl)cc1)c1ccc(C)c(C)c1 (centres unmarked) [Example 63]	–	–	–	–	–	–	–	–	79	95	0/10	0/10
CNS(=O)(=NC(=O)N(C)c1ccc(Cl)cc1)c1ccc(C)cc1 (centres unmarked) [Example 65]	–	–	–	–	91	97	0/10	0/10	–	–	–	–
